Converted amounts (≈) assume the structure as drawn.
What was measured:
[1] = system: S. epidermidis ATCC 12228; assay: MIC, microdilution method (9.1); format: cell-based, Staphylococcus epidermidis; details: Staphylococcus epidermidis, ATCC12228, read after 18 h, read-out: MIC
Procedure, shortened: (§1)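 Mueller Hinton broth cultures at 5×10^5 CFU/ml final were exposed to doubling concentrations of compound from 0.50 to 128 mg/L. Incubation: 37° C., ambient atmosphere. Method per CLSI M07-A8; blood supplement and CO2 reserved for fastidious organisms.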

S. epidermidis CIP 81.55 = assay: MIC, microdilution method (9.1); format: cell-based, Staphylococcus epidermidis; details: Staphylococcus epidermidis, CIP81, read after 18 h, read-out: MIC
Procedure, shortened: as §1

[2] = system: S. epidermidis CIP 103627; assay: MIC, microdilution method (9.1); format: cell-based, Staphylococcus epidermidis; details: Staphylococcus epidermidis, CIP103627, read after 18 h, read-out: MIC
Procedure, shortened: as §1

[3] = system: Acinetobacter baumanii ATCC 19606; assay: MIC, microdilution method (9.1); format: cell-based; details: Acinetobacter baumannii, ATCC19606, 18 h, read-out: MIC
Procedure, shortened: as §1

[4] = system: Klebsiella pneumoniae API ATCC 35657; assay: MIC, microdilution method (9.1); format: cell-based; details: ATCC35657, 18 h, read-out: MIC
Procedure, shortened: as §1

[5] = system: Listeria innocua CIP 80.11; assay: MIC, microdilution method (9.1); format: cell-based; details: CIP80, 18 h, read-out: MIC
Procedure, shortened: as §1

[6] = system: Pseudomonas aeruginosa CIP 5933; assay: MIC, microdilution method (9.1); format: cell-based; details: CIP5933, 18 h, read-out: MIC
Procedure, shortened: as §1

[7] = system: Bacillus subtilis CIP 5262; assay: MIC, microdilution method (9.1); format: cell-based; details: CIP5262, 18 h, read-out: MIC
Procedure, shortened: as §1

[8] = system: Escherichia coli ATCC 25922; assay: MIC, microdilution method (9.1); format: cell-based; details: ATCC25922, 18 h
Procedure, shortened: as §1

S. pneumoniae ATCC 49619 = assay: MIC, microdilution method (9.1); format: cell-based; details: Streptococcus pneumoniae, ATCC49619, 10% sheep blood, 5% CO2, 18 h
Procedure, shortened: (§2)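 Standard CLSI broth microdilution. Test range 0.50-128 mg/L (final), doubling steps.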

[9] = system: Serratia marcescens CIP 103551; assay: MIC, microdilution method (9.1); format: cell-based; details: CIP103551, 18 h
Procedure, shortened: as §1

[10] = system: Enterobacter cloacae ATCC13047; assay: MIC, microdilution method (9.1); format: cell-based; details: 18 h
Procedure, shortened: as §1

[11] = system: Haemophilus influenzae ATCC 49766; assay: MIC, microdilution method (9.1); format: cell-based; details: ATCC49766; Haemophilus influenzae ATCC 49766; 10% sheep blood, 5% CO2; 18 h; read-out: MIC
Procedure, shortened: as §2

[12] = system: S. pyogenes (group A) CIP 104226; assay: MIC, microdilution method (9.1); format: cell-based, Streptococcus pyogenes; details: Streptococcus pyogenes, CIP104226, 18 h, read-out: MIC
Procedure, shortened: as §1

S. mitis CIP 103335 = assay: MIC, microdilution method (9.1); format: cell-based, Streptococcus mitis; details: Streptococcus mitis, CIP103335, 18 h, read-out: MIC
Procedure, shortened: as §1

S. pneumoniae ATCC 6303 = assay: MIC, microdilution method (9.1); format: cell-based, Streptococcus pneumoniae; details: Streptococcus pneumoniae, ATCC6303, 10% sheep blood, 5% CO2, 18 h, read-out: MIC
Procedure, shortened: as §2

[13] = system: S. aureus CIP 65.25 (MRSA); assay: MIC, microdilution method (9.1); format: cell-based, Staphylococcus aureus; details: Staphylococcus aureus, read after 18 h, read-out: MIC
Procedure, shortened: as §1

S. aureus ATCC 9144 = assay: MIC, microdilution method (9.1); format: cell-based, Staphylococcus aureus; details: Staphylococcus aureus, ATCC9144, read after 18 h, read-out: MIC
Procedure, shortened: as §1

S. aureus SA-1199B = assay: MIC, microdilution method (9.1); format: cell-based, Staphylococcus aureus; details: Staphylococcus aureus, SA1199B, 18 h
Procedure, shortened: as §1

S. aureus CIP 65.6 = assay: MIC, microdilution method (9.1); format: cell-based, Staphylococcus aureus; details: Staphylococcus aureus, CIP65, read after 18 h, read-out: MIC
Procedure, shortened: as §1

S. aureus CIP 103428 = assay: MIC, microdilution method (9.1); format: cell-based, Staphylococcus aureus; details: Staphylococcus aureus, CIP103428, read after 18 h, read-out: MIC
Procedure, shortened: as §1

[14] = system: S. aureus ATCC 106414 (VISA); assay: MIC, microdilution method (9.1); format: cell-based, Staphylococcus aureus; details: Staphylococcus aureus, read after 18 h, read-out: MIC
Procedure, shortened: as §1

[15] = system: S. aureus ATCC 33592 (MRSA); assay: MIC, microdilution method (9.1); format: cell-based, Staphylococcus aureus; details: Staphylococcus aureus, read after 18 h, read-out: MIC
Procedure, shortened: as §1

S. aureus ATCC 29213 = assay: MIC, microdilution method (9.1); format: cell-based, Staphylococcus aureus; details: Staphylococcus aureus, ATCC29213, read after 18 h, read-out: MIC
Procedure, shortened: as §1

S. aureus ATCC 6538 = assay: MIC, microdilution method (9.1); format: cell-based, Staphylococcus aureus; details: Staphylococcus aureus, ATCC6538, read after 18 h, read-out: MIC
Procedure, shortened: as §1

S. aureus ATCC 25923 = assay: MIC, microdilution method (9.1); format: cell-based, Staphylococcus aureus; details: Staphylococcus aureus, ATCC25923, read after 18 h, read-out: MIC
Procedure, shortened: as §1

[16] = system: HCT116 (human colon tumor); assay: In vitro cytotoxicity; format: cell-based; details: HCT-116, HCT116, from 100 μM to 0.005 μM in DMSO, duplicate
[17] = system: S. agalactiae (group B) ATCC 12400; assay: MIC, microdilution method (9.1); format: cell-based, Streptococcus agalactiae; details: Streptococcus agalactiae, ATCC12400, 18 h, read-out: MIC
Procedure, shortened: as §1

| SMILES | MIC [1] | MIC (S. epidermidis CIP 81.55) | MIC [2] | MIC [3] | MIC [4] | MIC [6] | MIC [8] | MIC [9] | MIC [10] | MIC [13] | MIC (S. aureus ATCC 9144) | MIC (S. aureus CIP 65.6) | MIC (S. aureus CIP 103428) | MIC [14] | MIC [15] | MIC (S. aureus ATCC 29213) | MIC (S. aureus ATCC 6538) | MIC (S. aureus ATCC 25923) | IC50 ([16]; first value) | IC50 ([16]; second value) | further results |
| --- | --- | --- | --- | --- | --- | --- | --- | --- | --- | --- | --- | --- | --- | --- | --- | --- | --- | --- | --- | --- | --- |
| Cn1cc(C(=O)NC(CNC(=O)OC(C)(C)C)c2c[nH]c3ccc(Br)cc23)c2cc(Br)ccc21 (centres unmarked) [Compound 7, tert-Butyl (2-(5-bromo-1-methyl-1H-indole-3-carboxamido)-2-(5-bromo-1H-indol-3-yl)ethyl) carbamate] | > 128 mg/L | > 128 mg/L | > 128 mg/L | > 128 mg/L | > 128 mg/L | > 128 mg/L | > 128 mg/L | > 128 mg/L | > 128 mg/L | > 128 mg/L | > 128 mg/L | > 128 mg/L | > 128 mg/L | > 128 mg/L | > 128 mg/L | > 128 mg/L | > 128 mg/L | > 128 mg/L | 10.1 µM | 13.1 µM | MIC [5]: > 128 mg/L; MIC [7]: > 128 mg/L; MIC (S. pneumoniae ATCC 49619): > 128 mg/L; MIC [11]: > 128 mg/L; MIC [12]: > 128 mg/L; MIC (S. mitis CIP 103335): > 128 mg/L; MIC (S. pneumoniae ATCC 6303): > 128 mg/L; MIC (S. aureus SA-1199B): > 128 mg/L; MIC [17]: > 128 mg/L |
| NCCCCNC(=O)C(NC(=O)c1c[nH]c2ccc(Br)cc12)c1c[nH]c2ccc(Br)cc12 (centres unmarked) [Compound 16, N-(2-((4-Aminobutyl)amino)-1-(5-bromo-1H-indol-3-yl)-2-oxoethyl)-5-bromo-1H-indole-3-carboxamide] | 8 mg/L (≈ 14.3 µM) | 8 mg/L (≈ 14.3 µM) | 8 mg/L (≈ 14.3 µM) | > 32 mg/L | > 32 mg/L | 32 mg/L (≈ 57 µM) | 16 mg/L (≈ 28.5 µM) | > 32 mg/L | 16 mg/L (≈ 28.5 µM) | 8 mg/L (≈ 14.3 µM) | 8 mg/L (≈ 14.3 µM) | 8 mg/L (≈ 14.3 µM) | 8 mg/L (≈ 14.3 µM) | 8 mg/L (≈ 14.3 µM) | 8 mg/L (≈ 14.3 µM) | 8 mg/L (≈ 14.3 µM) | 8 mg/L (≈ 14.3 µM) | 8 mg/L (≈ 14.3 µM) | 52.9 µM | 42.8 µM | MIC [5]: > 128 mg/L; MIC [7]: > 128 mg/L; MIC (S. pneumoniae ATCC 49619): > 128 mg/L; MIC [11]: > 128 mg/L; MIC [12]: > 128 mg/L; MIC (S. mitis CIP 103335): > 128 mg/L; MIC (S. pneumoniae ATCC 6303): > 128 mg/L; MIC [17]: > 128 mg/L |
| CC(NC(=O)c1c[nH]c2ccc(Br)cc12)c1c[nH]c2ccc(Br)cc12 (centres unmarked) [Compound 4, 5-Bromo-N-(1-(5-bromo-1H-indol-3-yl)ethyl)-1H-indole-3-carboxamide] | 2 mg/L (≈ 4.34 µM) | 2 mg/L (≈ 4.34 µM) | 4 mg/L (≈ 8.67 µM) | > 128 mg/L | > 128 mg/L | > 128 mg/L | > 128 mg/L | > 128 mg/L | > 128 mg/L | 2 mg/L (≈ 4.34 µM) | 2 mg/L (≈ 4.34 µM) | 2 mg/L (≈ 4.34 µM) | 2 mg/L (≈ 4.34 µM) | 2 mg/L (≈ 4.34 µM) | 2 mg/L (≈ 4.34 µM) | 2 mg/L (≈ 4.34 µM) | 2 mg/L (≈ 4.34 µM) | 2 mg/L (≈ 4.34 µM) | 6.43 µM | 10 µM | MIC (S. aureus SA-1199B): 2 mg/L (≈ 4.34 µM) |
| CC(C)(C)OC(=O)NCC(NC(=O)c1c[nH]c2ccc(Br)cc12)c1c[nH]c2ccc(Br)cc12 (centres unmarked) [Compound 3f, tert-Butyl(2-(5-bromo-1H-indol-3-yl)-2-(5-bromo-1H-indolyl-3-carboxamido)ethyl)carbamate] | 1 mg/L (≈ 1.74 µM) | 2 mg/L (≈ 3.47 µM) | 1 mg/L (≈ 1.74 µM) | > 128 mg/L | > 128 mg/L | > 128 mg/L | > 128 mg/L | > 128 mg/L | > 128 mg/L | 2 mg/L (≈ 3.47 µM) | 1 mg/L (≈ 1.74 µM) | 1 mg/L (≈ 1.74 µM) | 1 mg/L (≈ 1.74 µM) | 2 mg/L (≈ 3.47 µM) | 2 mg/L (≈ 3.47 µM) | 1 mg/L (≈ 1.74 µM) | 1 mg/L (≈ 1.74 µM) | 1 mg/L (≈ 1.74 µM) | 5.24 µM | 5.05 µM | MIC [5]: > 128 mg/L; MIC [7]: 32 mg/L (≈ 55.5 µM); MIC (S. pneumoniae ATCC 49619): 32 mg/L (≈ 55.5 µM); MIC [11]: 32 mg/L (≈ 55.5 µM); MIC [12]: 32 mg/L (≈ 55.5 µM); MIC (S. mitis CIP 103335): 64 mg/L (≈ 111 µM); MIC (S. pneumoniae ATCC 6303): 32 mg/L (≈ 55.5 µM); MIC (S. aureus SA-1199B): 2 mg/L (≈ 3.47 µM); MIC [17]: 32 mg/L (≈ 55.5 µM) |
